{"source": "patent US20230301947A1", "about": "“COMPOUND FOR PREVENTING AND TREATING PSYCHIATRIC DISORDERS AND USE THEREOF” (SHANGHAI INSTITUTE OF MATERIA MEDICA, CHINESE ACADEMY OF …, priority 2020, published 2023)", "key": {"SD rats [1]": {"tested_on": "SD rats", "assay": "Forced swimming test in rats (control and ACTH-induced refractory depression model)", "type": "in vivo", "conditions": "20 mg/kg intraperitoneal, tested 30 min after administration; for antidepressant effect in forced swimming: ACTH group SD rats (refractory depression model)", "description": "(§1) The forced swimming test system is primarily used in antidepressant studies.\n(§2) Experimental operation: Mice were individually placed in a cylindrical glass tank 30 cm high and 20 cm in diameter, with a water depth of 15 cm (20 cm for rats), so that the mice are unable to escape from the glass tank and their feet and tails can not touch the bottom of the tank. The water temperature was 23° C.-25° C. The mice were filmed for 6 minutes after entering the water. Since most of the mice were very active in the first two minutes, the last 4 minutes of immobility time were calculated (criteria for determining immobility: the mice stopped struggling in the water, immobility and fine limb movements to maintain balance or float). Groups of mice were operated in parallel.\nAn animal model of refractory depression was induced in SD rats by continuous intraperitoneal injection of adrenocorticotropic hormone (ACTH) for 3 weeks. This model can block the effects of tricyclic antidepressants and some SSRIs antidepressants, but can not block the efficacy of ketamine and electroconvulsive therapy (ETC). Since ketamine and ETC have specific efficacy in refractory depression, this animal model can be used to preliminary evaluate whether the drug have efficacy in refractory depression.\n1. SD rats in the model group (ACTG) were continuously injected with ACTH for 3 weeks (once/day), and the test drug was injected intraperitoneally 24 h after the last administration of ACTH. The rats in the control group (CON) were continuously injected intraperitoneally with 0.9% saline (once/day) and similarly the test drug was injected intraperitoneally 24 h after the last administration of saline.\n3. After the open-field experiment, ACTH was continued to be injected, and after 24 h, the above test drug was injected intraperitoneally and forced swimming was tested 30 min after the administration."}, "SD rats [2]": {"tested_on": "SD rats", "assay": "Open field test in rats (control and ACTH-induced refractory depression model)", "type": "in vivo", "conditions": "normal animals and ACTH model animals (SD rats); 20 mg/kg intraperitoneal, tested 30 min after administration", "text": "Open field test, also known as the open box test, is a method to evaluate the autonomous behavior, exploratory behavior and anxiety-like behavior of experimental animals in a novel environment. The frequency and duration of the normal activities, the fear of the open environment and the exploration of the new environment and other behaviors of the experimental animals in the open box are used to reflect the autonomous behavior and exploratory behavior of the experimental animals in the unfamiliar environment. The results of the open-field experiments were analyzed to evaluate the depression and anxiety-like behaviors of the animals.\nExperimental operation: the experimental animals were placed in the behavior room 2 hours before the experiment. The animals were placed in the center of the bottom of a black plastic box (size 100*100*45 cm) during the experiment, while video filming was performed. The experiment time was 10 minutes and was conducted in a quiet environment. […] The video was analyzed using the animal spontaneous activity analysis software to obtain information of central area activity time (anxiety-like behavior), total distance of activities (exercise ability), and number of wall climbing (novel environment exploratory behavior) and the like, which can be used to judge the depression or anxiety-like behavior of the animal and degree thereof. […]"}, "TREK-1 ion channel": {"target": "T1, TREK-1 ion channel (Homo sapiens, UniProt O95069)", "T1 construct": "expressed in transfected cells; host or cells: CHO-K1", "T1 sequence (O95069 1-426)": "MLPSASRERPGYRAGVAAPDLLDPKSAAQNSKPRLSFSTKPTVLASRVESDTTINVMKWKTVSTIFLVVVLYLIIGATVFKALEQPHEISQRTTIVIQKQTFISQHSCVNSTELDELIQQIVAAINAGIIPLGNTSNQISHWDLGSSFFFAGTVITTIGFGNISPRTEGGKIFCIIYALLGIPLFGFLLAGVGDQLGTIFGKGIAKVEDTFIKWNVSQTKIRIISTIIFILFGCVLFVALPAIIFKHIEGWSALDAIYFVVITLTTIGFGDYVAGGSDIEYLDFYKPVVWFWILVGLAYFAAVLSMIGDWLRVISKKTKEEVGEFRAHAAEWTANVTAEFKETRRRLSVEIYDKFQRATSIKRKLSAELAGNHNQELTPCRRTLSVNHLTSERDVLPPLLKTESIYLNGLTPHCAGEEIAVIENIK", "assay": "Whole-cell membrane clamp recording of TREK-1 channel current in transfected CHO-K1 cells", "type": "cell-based", "description": "Cells were transfected using a cationic liposome transfection method, and the target gene TREK-1 plasmid protein was heterologously expressed in CHO-K1 cells according to the operating standard instructions of Lipo3000 transfection reagent. The ion channel protein was expressed in the cells for 24-48 h followed by electrophysiological experiments.\nWhole-cell membrane clamp recording mode was used for electrophysiological experiments. The transfected cells were placed in a bath containing extracellular fluid, the resistance of the drawn electrode is 3-7 MΩ, the electrode was filled with intracellular fluid, the polished electrode was used to contact the cell membrane, the positive voltage was removed and the negative voltage was gently applied to form a high impedance seal, and then the cell membrane was broken by continuing to apply negative voltage, i.e. whole-cell recording mode was formed. The sampling frequency of the electrophysiological amplifier was 10 kHz, and the data sampling was controlled using a DigiData 1440A conversion interface. The software used for collecting and analyzing whole-cell recording experimental data is Clamfit 10.7, the software used for data analysis and graphing is Origin 8.1, and the software used for statistical analysis is SPSS.\nCLA096: Three doses were set up in this example. The drug was firstly dissolved in DMSO and then diluted with tri-distilled water to […]: 5 µM, 10 µM and 20 µM, respectively.\nThe experiment was performed using a cell membrane clamp method to record the current of TREK-1 ion channel in whole cells. Protocol A0 was chosen to record the currents of cells at -80 mV, -60 mV, -40 mV, -20 mV, 0 mV, 20 mV, 40 mV, 60 mV and 80 mV, and Protocol A0 was repeated with different concentrations such as 5 µM, 10 µM and 20 µM of CLA096 being perfused, respectively. After administration, whether it can be eluted was tested."}, "C57 mice [3]": {"tested_on": "C57 mice", "assay": "Forced swimming experiment in normal mice", "type": "in vivo", "conditions": "C57 male mice, intraperitoneal; for immobility time in forced swimming test: compared with vehicle group", "description": "as §1, §2\nCLA096: Three doses were set up in this example, the low, medium and high doses were 5 mg/kg, 20 mg/kg and 40 mg/kg, respectively. The compound was dissolved in 0.5% Tween-40 and sonicated, and should be used right after it was ready.\nFluoxetine (FLX): FLX with a dose of 10 mg/kg; dissolved in double distilled water, and should be used right after it was ready."}, "C57 mice [4]": {"tested_on": "C57 mice", "assay": "Novelty-suppressed feeding experiment in normal mice", "type": "in vivo", "conditions": "C57 male mice, intraperitoneal", "description": "Novelty-suppressed feeding experiment (NSF) is a conflict between feeding occurred in a novel environment in a state of starvation after fasting and fear of novel environment. Long-term administration of antidepressant drugs can reduce the conflict response ability of animals, which is manifested by shortened incubation period of the start of feeding. This model is currently widely used in the evaluation of antidepressant and anti-anxiety efficacy.\nThe experimental equipment was a 35 cm*35 cm*30 cm (L*W*H) open box, which was overspread with substrate, and a white filter paper with a diameter of 5 cm was placed in the open box, and 2 pieces of food were placed in the middle of the filter paper. The animals were fasted for 12 h before the administration of the drug.\nTwo hours before the behavioral test, the animal were moved into the functional room for 2 h to acclimatize. […] The animal were placed from the edge of the experimental open box, and the animal were regarded as successful feeding if their mouths touched the food within 10 min, and then the animal were removed immediately and the time of successful feeding (i.e. Novelty latency) was calculated. The animal were then placed in the normal feeding cage and the time from placement to feeding (i.e. Habituation latency) was also calculated. […] The whole experiment was recorded by camera, and the data were processed and analyzed offline. […]"}, "mice": {"tested_on": "mice", "assay": "14-day subacute toxicity test in mice", "type": "in vivo", "conditions": "male and female mice; 5, 50 and 100 mg/kg intraperitoneal, once a day, 14 days", "description": "Test drug configuration: CLA096: Three doses were set up: 5 mg/kg, 50 mg/kg and 100 mg/kg, respectively."}, "[5]": {"conditions": "CLA096 5, 20, 40 mg/kg vs positive control fluoxetine"}}, "data": [{"smiles": "CNC1(c2ccccc2Cl)CCCCC1=O", "note": "(stereo not drawn) [Ketamine]", "values": [{"measurement": "antidepressant effect in forced swimming", "setting": "SD rats [1]", "value": "remained significant"}, {"measurement": "immobility time of forced swimming", "setting": "SD rats [1]; control (CON) group SD rats", "value": "significantly reduced the immobility time"}, {"measurement": "total movement distance in open field", "setting": "SD rats [2]", "value": "no significant difference"}]}, {"smiles": "CN(C)CCCN1c2ccccc2CCc2ccccc21", "note": "[Imipramine]", "values": [{"measurement": "antidepressant effect in forced swimming", "setting": "SD rats [1]", "value": "blocked"}, {"measurement": "immobility time of forced swimming", "setting": "SD rats [1]; control (CON) group SD rats", "value": "significantly reduced the immobility time"}]}, {"smiles": "CN(Cc1ccccc1)C(=O)CN(c1ccc(Cl)cc1)S(C)(=O)=O", "note": "[CLA096, N-benzyl-2-(N-(4-chlorophenyl)methylsulfonylamino)-N-methylacetamide]", "values": [{"measurement": "inhibition rate of TREK-1 channel open current", "setting": "TREK-1 ion channel; 5 µM CLA096", "value": "0.75 ± 0.02"}, {"measurement": "inhibition rate of TREK-1 channel open current", "setting": "TREK-1 ion channel; 10 µM CLA096", "value": "0.55 ± 0.05"}, {"measurement": "inhibition rate of TREK-1 channel open current", "setting": "TREK-1 ion channel; 20 µM CLA096", "value": "0.59 ± 0.01"}, {"measurement": "effect on forced swimming immobility time compared with fluoxetine", "setting": "C57 mice [3]; [5]", "value": "significantly better than fluoxetine"}, {"measurement": "immobility time in forced swimming test", "setting": "C57 mice [3]; CLA096 5, 20 and 40 mg/kg", "value": "significantly reduces the immobility time of animals at all doses"}, {"measurement": "effect on feeding latency compared with fluoxetine", "setting": "C57 mice [4]; [5]", "value": "significantly better than fluoxetine"}, {"measurement": "latency of feeding of fasted mice (novelty-suppressed feeding)", "setting": "C57 mice [4]; CLA096 5, 20 and 40 mg/kg, compared with vehicle group", "value": "significantly reduced the latency value"}, {"measurement": "antidepressant effect in forced swimming", "setting": "SD rats [1]", "value": "remained significant"}, {"measurement": "immobility time of forced swimming", "setting": "SD rats [1]; control (CON) group SD rats", "value": "significantly reduced the immobility time"}, {"measurement": "swimming time in forced swimming", "setting": "SD rats [1]; control (CON) group SD rats", "value": "significantly increased the swimming time"}, {"measurement": "total movement distance in open field", "setting": "SD rats [2]", "value": "no significant difference"}, {"measurement": "body weight change", "setting": "mice", "value": "no significant changes in body weight"}]}, {"smiles": "CNCCC(Oc1ccc(C(F)(F)F)cc1)c1ccccc1", "note": "(stereo not drawn) [Fluoxetine, reference compound]", "values": [{"measurement": "immobility time in forced swimming test", "setting": "C57 mice [3]; fluoxetine 10 mg/kg (table says 20)", "value": "significantly reduces the immobility time"}]}]}
